Data on two compounds can be found in patent publication US12157741B2, “Macrocyclic inhibitors of DYRK1A” (DANA-FARBER CANCER INSTITUTE, INC., priority 2018, dated 2024).

Where two headings read alike, the source gives them in different places.

The target of experiment [1] is various enzymes (Homo sapiens, UniProt Q00526). Conditions: CDK3; 1 uM.
Protocol: (§1) Ambit profiling from Eurofins (formerly Discoverx) was conducted in accordance with the manufacturer's instructions.
Experiment [2] has as its target T1, various enzymes (Homo sapiens, UniProt Q9H093).
T1 sequence (Q9H093 1-628): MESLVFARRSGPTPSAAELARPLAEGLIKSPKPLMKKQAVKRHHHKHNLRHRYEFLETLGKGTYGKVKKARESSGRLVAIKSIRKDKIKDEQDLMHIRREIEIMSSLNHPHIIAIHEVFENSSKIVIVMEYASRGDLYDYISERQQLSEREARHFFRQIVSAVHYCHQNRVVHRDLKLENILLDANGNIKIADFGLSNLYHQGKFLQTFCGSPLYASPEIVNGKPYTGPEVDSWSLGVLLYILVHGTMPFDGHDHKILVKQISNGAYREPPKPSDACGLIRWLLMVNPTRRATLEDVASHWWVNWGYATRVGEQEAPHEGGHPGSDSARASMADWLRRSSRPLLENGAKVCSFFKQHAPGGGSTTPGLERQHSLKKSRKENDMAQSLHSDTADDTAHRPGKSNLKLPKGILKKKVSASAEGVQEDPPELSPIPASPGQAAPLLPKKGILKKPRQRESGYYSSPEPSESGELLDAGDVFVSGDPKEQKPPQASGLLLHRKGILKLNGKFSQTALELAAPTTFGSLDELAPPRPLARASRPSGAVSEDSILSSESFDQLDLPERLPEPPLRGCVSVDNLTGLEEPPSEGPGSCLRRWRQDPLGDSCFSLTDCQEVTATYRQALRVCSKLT
Conditions: SNARK; 1 uM.
Protocol: as §1

The target in experiment [3] is T2, various enzymes (Homo sapiens, UniProt Q13873).
T2 sequence (Q13873 27-1038): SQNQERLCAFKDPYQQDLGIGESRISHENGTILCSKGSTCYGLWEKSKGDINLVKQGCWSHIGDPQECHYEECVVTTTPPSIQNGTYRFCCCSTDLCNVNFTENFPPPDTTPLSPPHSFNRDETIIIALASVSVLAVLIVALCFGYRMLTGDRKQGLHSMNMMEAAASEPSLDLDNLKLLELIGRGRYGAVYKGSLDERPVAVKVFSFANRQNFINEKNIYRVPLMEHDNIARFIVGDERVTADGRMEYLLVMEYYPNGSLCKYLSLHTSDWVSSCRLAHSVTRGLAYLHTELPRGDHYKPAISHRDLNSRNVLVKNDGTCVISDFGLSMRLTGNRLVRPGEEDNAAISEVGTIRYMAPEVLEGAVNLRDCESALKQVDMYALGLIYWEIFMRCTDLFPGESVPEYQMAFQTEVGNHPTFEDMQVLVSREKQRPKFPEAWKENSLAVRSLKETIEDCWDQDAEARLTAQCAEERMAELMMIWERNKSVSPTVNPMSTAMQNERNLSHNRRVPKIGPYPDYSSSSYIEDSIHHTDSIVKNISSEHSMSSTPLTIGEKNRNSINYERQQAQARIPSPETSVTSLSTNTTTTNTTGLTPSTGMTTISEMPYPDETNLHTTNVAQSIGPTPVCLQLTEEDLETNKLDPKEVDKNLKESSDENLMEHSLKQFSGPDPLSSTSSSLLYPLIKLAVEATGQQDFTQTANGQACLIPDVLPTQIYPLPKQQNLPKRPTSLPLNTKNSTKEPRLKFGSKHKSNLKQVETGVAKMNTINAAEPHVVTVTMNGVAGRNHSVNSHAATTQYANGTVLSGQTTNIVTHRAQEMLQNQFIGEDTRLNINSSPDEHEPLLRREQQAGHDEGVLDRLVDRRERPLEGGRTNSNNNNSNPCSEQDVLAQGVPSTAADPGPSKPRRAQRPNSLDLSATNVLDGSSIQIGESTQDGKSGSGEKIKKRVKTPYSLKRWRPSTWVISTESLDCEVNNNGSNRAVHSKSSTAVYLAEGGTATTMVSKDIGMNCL
Conditions: BMPR2; 1 uM.
Protocol: as §1

Experiment [4] has as its target various enzymes (Homo sapiens, UniProt O60674). Conditions: JAK2(JH1domain-catalytic); 1 uM.
Protocol: as §1
Experiment [5] concerns the target various enzymes (Homo sapiens, UniProt P00533, L858R).
Protocol: as §1
The target in experiment [6] is various enzymes (Homo sapiens, UniProt P41240). The note with it: CSK; 1 uM.
Chain of various enzymes (Homo sapiens, UniProt P41240) (P41240 whole entry): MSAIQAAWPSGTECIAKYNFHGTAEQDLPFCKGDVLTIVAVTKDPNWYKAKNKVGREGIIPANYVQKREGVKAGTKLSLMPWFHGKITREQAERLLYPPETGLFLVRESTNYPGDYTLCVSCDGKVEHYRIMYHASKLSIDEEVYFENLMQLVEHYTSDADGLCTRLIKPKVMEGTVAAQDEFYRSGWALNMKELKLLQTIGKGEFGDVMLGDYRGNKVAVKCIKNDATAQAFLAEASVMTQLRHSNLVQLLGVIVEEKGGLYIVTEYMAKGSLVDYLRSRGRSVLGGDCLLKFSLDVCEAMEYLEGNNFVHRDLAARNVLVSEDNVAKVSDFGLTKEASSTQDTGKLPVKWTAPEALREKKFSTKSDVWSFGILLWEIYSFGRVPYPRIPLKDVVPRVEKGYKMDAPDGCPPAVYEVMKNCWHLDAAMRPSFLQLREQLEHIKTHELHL
Protocol: as §1
The target of experiment [7] is various enzymes (Homo sapiens, UniProt P00533, G719S).
Protocol: as §1
For experiment [8], the target named is T3, various enzymes (Homo sapiens, UniProt Q96L34).
T3 sequence (Q96L34 1-752): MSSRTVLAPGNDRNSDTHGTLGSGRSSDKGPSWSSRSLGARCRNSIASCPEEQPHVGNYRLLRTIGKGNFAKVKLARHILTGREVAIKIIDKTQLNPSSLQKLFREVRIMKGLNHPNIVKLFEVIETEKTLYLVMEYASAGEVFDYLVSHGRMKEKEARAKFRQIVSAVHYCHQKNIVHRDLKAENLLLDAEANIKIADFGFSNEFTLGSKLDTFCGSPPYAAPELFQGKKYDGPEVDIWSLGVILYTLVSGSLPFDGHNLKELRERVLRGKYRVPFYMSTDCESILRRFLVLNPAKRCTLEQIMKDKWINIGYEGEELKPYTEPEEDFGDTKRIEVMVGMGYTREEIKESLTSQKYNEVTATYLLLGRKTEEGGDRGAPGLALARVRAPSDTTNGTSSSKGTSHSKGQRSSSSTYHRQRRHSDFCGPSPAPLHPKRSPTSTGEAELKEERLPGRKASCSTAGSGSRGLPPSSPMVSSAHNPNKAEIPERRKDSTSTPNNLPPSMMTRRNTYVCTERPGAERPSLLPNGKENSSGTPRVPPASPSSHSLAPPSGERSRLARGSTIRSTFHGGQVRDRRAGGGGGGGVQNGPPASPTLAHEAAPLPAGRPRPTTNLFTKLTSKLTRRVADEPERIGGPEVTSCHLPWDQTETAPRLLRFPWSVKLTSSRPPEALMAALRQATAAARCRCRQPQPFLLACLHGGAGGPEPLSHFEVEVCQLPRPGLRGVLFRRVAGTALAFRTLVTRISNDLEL
Conditions: MARK4; 1 uM.
Protocol: as §1

For experiment [9], the target named is various enzymes (Homo sapiens, UniProt P08581, Y1235D).
Protocol: as §1
In experiment [10] the target is various enzymes (Homo sapiens, UniProt P29597). Conditions: 1 uM.
Chain of various enzymes (Homo sapiens, UniProt P29597) (P29597 whole entry): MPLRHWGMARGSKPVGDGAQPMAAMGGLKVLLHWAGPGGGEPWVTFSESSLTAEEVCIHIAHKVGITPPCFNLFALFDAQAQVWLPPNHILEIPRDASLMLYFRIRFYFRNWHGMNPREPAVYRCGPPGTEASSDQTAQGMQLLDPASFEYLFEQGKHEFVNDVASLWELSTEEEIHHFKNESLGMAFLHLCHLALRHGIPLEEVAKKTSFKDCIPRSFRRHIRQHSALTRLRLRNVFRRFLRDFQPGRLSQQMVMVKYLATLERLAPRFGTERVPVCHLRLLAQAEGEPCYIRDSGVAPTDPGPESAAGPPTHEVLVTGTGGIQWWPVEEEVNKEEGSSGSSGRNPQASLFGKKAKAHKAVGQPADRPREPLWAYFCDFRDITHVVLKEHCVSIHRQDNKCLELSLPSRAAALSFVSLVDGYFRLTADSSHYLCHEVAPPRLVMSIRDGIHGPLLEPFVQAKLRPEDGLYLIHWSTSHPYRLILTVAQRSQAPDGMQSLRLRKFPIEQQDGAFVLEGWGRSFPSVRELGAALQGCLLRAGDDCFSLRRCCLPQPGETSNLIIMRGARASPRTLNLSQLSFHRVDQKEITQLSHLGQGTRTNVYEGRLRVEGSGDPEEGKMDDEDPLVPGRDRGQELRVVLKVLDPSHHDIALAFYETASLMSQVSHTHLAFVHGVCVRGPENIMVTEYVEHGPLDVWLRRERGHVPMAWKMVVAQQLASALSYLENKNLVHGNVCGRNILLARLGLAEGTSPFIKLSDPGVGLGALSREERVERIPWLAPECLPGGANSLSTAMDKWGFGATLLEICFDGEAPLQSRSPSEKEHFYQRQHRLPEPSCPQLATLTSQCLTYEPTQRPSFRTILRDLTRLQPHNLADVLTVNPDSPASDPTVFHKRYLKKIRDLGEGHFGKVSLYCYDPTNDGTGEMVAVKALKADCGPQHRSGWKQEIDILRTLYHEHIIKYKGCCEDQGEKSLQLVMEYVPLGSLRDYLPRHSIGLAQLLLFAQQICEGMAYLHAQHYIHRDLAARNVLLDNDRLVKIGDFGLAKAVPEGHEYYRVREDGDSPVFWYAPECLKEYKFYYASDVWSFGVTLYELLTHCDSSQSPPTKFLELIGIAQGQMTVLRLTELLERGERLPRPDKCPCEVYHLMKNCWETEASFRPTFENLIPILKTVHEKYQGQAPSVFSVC
Protocol: as §1

Chain of various enzymes (Homo sapiens, UniProt Q00526) (Q00526 whole entry): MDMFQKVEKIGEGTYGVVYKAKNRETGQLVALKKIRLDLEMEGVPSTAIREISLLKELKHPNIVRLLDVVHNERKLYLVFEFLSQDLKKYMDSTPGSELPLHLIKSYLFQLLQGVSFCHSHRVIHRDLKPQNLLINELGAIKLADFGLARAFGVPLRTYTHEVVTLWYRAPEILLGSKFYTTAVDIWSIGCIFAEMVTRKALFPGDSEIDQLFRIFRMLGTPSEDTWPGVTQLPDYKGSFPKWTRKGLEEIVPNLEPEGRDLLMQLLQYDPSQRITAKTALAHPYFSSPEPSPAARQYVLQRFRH
Chain of various enzymes (Homo sapiens, UniProt O60674) (O60674 whole entry): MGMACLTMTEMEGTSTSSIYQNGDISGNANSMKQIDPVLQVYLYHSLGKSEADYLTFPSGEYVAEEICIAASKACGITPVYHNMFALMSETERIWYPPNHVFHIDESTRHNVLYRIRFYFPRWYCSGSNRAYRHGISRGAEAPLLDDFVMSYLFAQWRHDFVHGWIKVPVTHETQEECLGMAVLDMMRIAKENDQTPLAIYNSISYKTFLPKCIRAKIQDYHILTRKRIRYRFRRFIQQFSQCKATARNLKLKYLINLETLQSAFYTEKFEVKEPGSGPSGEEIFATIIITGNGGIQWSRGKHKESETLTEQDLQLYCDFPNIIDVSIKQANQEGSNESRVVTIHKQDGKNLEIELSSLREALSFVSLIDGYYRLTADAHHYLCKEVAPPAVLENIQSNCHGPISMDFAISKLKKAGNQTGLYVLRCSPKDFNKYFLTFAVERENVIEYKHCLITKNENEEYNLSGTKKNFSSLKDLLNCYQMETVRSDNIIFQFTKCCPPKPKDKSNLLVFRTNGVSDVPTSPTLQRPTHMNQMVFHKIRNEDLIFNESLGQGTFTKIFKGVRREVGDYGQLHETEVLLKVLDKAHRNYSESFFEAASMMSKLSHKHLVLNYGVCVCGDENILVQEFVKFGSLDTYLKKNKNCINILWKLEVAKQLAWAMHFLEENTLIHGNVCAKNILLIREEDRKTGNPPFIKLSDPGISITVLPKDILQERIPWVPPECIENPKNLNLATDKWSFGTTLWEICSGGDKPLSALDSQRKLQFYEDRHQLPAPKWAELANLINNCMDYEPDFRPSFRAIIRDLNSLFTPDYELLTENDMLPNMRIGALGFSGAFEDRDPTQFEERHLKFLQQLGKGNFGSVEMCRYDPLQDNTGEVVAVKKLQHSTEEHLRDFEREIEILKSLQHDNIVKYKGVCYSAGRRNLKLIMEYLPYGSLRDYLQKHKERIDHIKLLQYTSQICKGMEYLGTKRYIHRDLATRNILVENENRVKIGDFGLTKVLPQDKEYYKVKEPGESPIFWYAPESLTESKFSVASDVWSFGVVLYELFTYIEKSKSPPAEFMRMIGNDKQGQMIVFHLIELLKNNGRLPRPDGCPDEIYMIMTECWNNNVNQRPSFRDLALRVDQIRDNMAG

For `CN1Cc2nn(C)cc2-c2cnc3[nH]cc(c3c2)-c2cnn(c2)CCCC1=O` [Compound 41, (Z)-31,5-dimethyl-11H,21H,31H-5-aza-2(3,5)-pyrrolo[2,3-b]pyridina-1(4,1),3(4,3)-dipyrazolacyclononaphan-6-one], the Ambit profiling in experiment [1] came to 50; in [2] it was 4.3; in experiment [3], 4.1; in experiment [4], 0.5; in experiment [5] (EGFR(L856R), 1 uM) it was 87; in experiment [6] it was 63. Moreover, the Ambit profiling in experiment [7] (EGFR(G719S), 1 uM) is listed as 100; in [8] it was 27; in experiment [9] (MET(Y12350), 1 uM) it was 44; in experiment [10] (TYK2(JH1domain-catalytic)) it was 2.3; in experiment [10] (TYK2(JH2domain-pseudokinase)) it was 100.

In the case of `CN1Cc2nn(C)c(C#N)c2-c2cnc3[nH]cc(c3c2)-c2cn(nc2C(F)(F)F)CCCC1=O` [Compound 48, (Z)-31,5-dimethyl-6-oxo-13-(trifluoromethyl)-11H,21H,31H-5-aza-2(3,5)-pyrrolo[2,3-b]pyridina-1(4,1),3(4,3)-dipyrazolacyclononaphane-35-carbonitrile], the Ambit profiling in experiment [1] is 100; in experiment [2], 100; in [3], 85; in experiment [4], 81; in [5], 63; in experiment [6], 95. Besides, the Ambit profiling in experiment [7] came out at 71; in experiment [8], 92; in [9] it was 51; in [10] (TYK2(JH1domain-catalytic)) it was 84; in experiment [10] (TYK2(JH2domain-pseudokinase)), 100.
